Measured values: patent US5055487A, “Novel anti-fungal compounds” (Merck & Co., Inc., priority 1990, dated 1991)
≈ marks a conversion by molar mass, not a printed value.

Legend:
Type in all cases: cell-based
[1] = tested on: C. albicans MY1055; assay: Inhibitor dilution assay in microtiter format, yeast MIC: C. albicans MY1055; conditions: Candida albicans; C. albicans MY1055, 24 to 48 hours, 35° C.; read-out: Minimum Inhibitory Concentration
Experimental: (§1) The compounds are particularly active towards filamentous fungi and yeasts including Candida albicans and Crypt. neoformans. The sensitivity of filamentous fungi and yeast was determined using inhibitor dilution assays in microtiter format. The compounds were dissolved in DMSO at 2 mg/ml and serially diluted in 0.1 M phosphate buffer, pH 7.0 in the microtiter dish from 100 to 0.006 μg/ml. A standardized spore suspension for testing the filamentous fungi was prepared by inoculating Antibiotic Medium #3 containing 1.5% agar with spores such that 1.5×10^3 colony forming units were added per we11. The microtiter wells were filled with 50 μl of buffer containing compound and 50 μl of inoculated medium. The sensitivity of yeasts was determined by inoculating yeast nitrogen base containing 1% dextrose (YNB/G) with aliquots of an overnight yeast culture grown in Yeast Morphology (YM) media at 35° C. and diluting in YNB/G to yield a final concentration of 1.5-7.5×10^3 colony forming units/well. One hundred fifty μl of inoculated media was added per well. To test the sensitivity of yeast, compound was solubilized in 10 percent aqueous DMSO at 2.56 mg/ml. The compound was diluted serially in YNB/G from 128 to 0.06 μg/ml. The wells were filled with 150 μl of drug containing media. […]

[2] = tested on: Coch. miyabeanus MF4626; assay: Inhibitor dilution assay in microtiter format, filamentous fungi: Coch. miyabeanus MF4626; conditions: Bipolaris oryzae, MF4626, 42 h, read-out: Minimum Inhibitory Concentration
Experimental: as §1

[3] = tested on: Crypt. neoformans MY1051; assay: Minimum fungicidal concentration, yeast: Crypt. neoformans MY1051; conditions: Cryptococcus neoformans, no growth or no more than three colonies
Experimental: as §1

[4] = tested on: C. tropicalis MY1012; assay: Inhibitor dilution assay in microtiter format, yeast MIC: C. tropicalis MY1012; conditions: Candida tropicalis; C. tropicalis MY1012, 24 to 48 hours, 35° C.; read-out: Minimum Inhibitory Concentration
Experimental: as §1

[5] = tested on: Crypt. neoformans MY1051; assay: Inhibitor dilution assay in microtiter format, yeast MIC: Crypt. neoformans MY1051; conditions: Cryptococcus neoformans; Crypt. neoformans MY1051, 24 to 48 hours, 35° C.; read-out: Minimum Inhibitory Concentration
Experimental: as §1

[6] = tested on: Fus. oxysproum MF4014; assay: Inhibitor dilution assay in microtiter format, filamentous fungi: Fus. oxysproum MF4014; conditions: Fus. oxysproum MF4014, 42 hours, 28° C.; read-out: Minimum Inhibitory Concentration
Experimental: as §1

[7] = tested on: A. fumigatus MF4839; assay: Inhibitor dilution assay in microtiter format, filamentous fungi: A. fumigatus MF4839; conditions: Aspergillus fumigatus; A. fumigatus MF4839, 42 hours, 28° C.; read-out: Minimum Inhibitory Concentration
Experimental: as §1

[8] = tested on: C. tropialis MY1012; assay: Minimum fungicidal concentration, yeast: C. tropialis MY1012; conditions: no growth or no more than three colonies
Experimental: as §1

[9] = tested on: C. albicans MY1055; assay: Minimum fungicidal concentration, yeast: C. albicans MY1055; conditions: Candida albicans, no growth or no more than three colonies
Experimental: as §1

[10] = tested on: A. flavus MF383; assay: Inhibitor dilution assay in microtiter format, filamentous fungi: A. flavus MF383; conditions: Aspergillus flavus; A. flavus MF383, 42 hours, 28° C.; read-out: Minimum Inhibitory Concentration
Experimental: as §1

[11] = tested on: C. parasilosos MY1010; assay: Minimum fungicidal concentration, yeast: C. parasilosos MY1010; conditions: no growth or no more than three colonies
Experimental: as §1

[12] = tested on: A. niger MF442; assay: Inhibitor dilution assay in microtiter format, filamentous fungi: A. niger MF442; conditions: Aspergillus niger; A. niger MF442, 42 hours, 28° C.; read-out: Minimum Inhibitory Concentration
Experimental: as §1

[13] = tested on: C. parapsilosis MY1010; assay: Inhibitor dilution assay in microtiter format, yeast MIC: C. parapsilosis MY1010; conditions: Lodderomyces parapsilosis; C. parapsilosis MY1010, 24 to 48 hours, 35° C.; read-out: Minimum Inhibitory Concentration
Experimental: as §1

[14] = tested on: Pen. italicum MF2819; assay: Inhibitor dilution assay in microtiter format, filamentous fungi: Pen. italicum MF2819; conditions: Penicillium italicum; Pen. italicum MF2819, 42 hours, 28° C.; read-out: Minimum Inhibitory Concentration
Experimental: as §1

[15] = tested on: T. Mentagrophytes MF4864; assay: Inhibitor dilution assay in microtiter format, filamentous fungi: T. Mentagrophytes MF4864; conditions: Trichophyton mentagrophytes; T. Mentagrophytes MF4864, 42 hours, 28° C.; read-out: Minimum Inhibitory Concentration
Experimental: as §1

SMILES	MIC [1] [µg/mL]	MIC [2] [µg/mL]	MFC [3] [µg/mL]	MIC [4] [µg/mL]	MIC [5] [µg/mL]	MIC [6] [µg/mL]	MIC [7] [µg/mL]	MFC [8] [µg/mL]	MFC [9] [µg/mL]	MIC [10] [µg/mL]	MFC [11] [µg/mL]	MIC [12] [µg/mL]	MIC [13] [µg/mL]	MIC [14] [µg/mL]	MIC [15] [µg/mL]
CC=CCCCCC=CCCCCC(=O)OC1C(O)C2(CCC(C)C(O)C(C)CC=Cc3ccccc3)OC(C(=O)O)C(O)(C(=O)O)C1(C(=O)O)O2 (stereo not shown) [Compound A]	8 (≈ 10.9 µM)	1.6 (≈ 2.19 µM)	2 (≈ 2.74 µM)	4 (≈ 5.47 µM)	4 (≈ 5.47 µM)	> 100	0.098 (≈ 0.134 µM)	1 (≈ 1.37 µM)	4 (≈ 5.47 µM)	0.098 (≈ 0.134 µM)	1 (≈ 1.37 µM)	100 (≈ 137 µM)	4 (≈ 5.47 µM)	0.025 (≈ 0.0342 µM)	
CC=CCCCCC=CCCCCC(=O)OC1C(O)C2(CCC(C)C(O)C(C)CC=Cc3ccccc3)OC(C(=O)OC)C(O)(C(=O)OC)C1(C(=O)OC)O2 (stereo not shown) [Compound B]	> 128		> 128	> 128	> 128		> 128	> 128	> 128	> 128	> 128		> 128		> 128
